Where two headings read alike, the source gives them in different places.
Columns and labels:
Format in all cases: in vivo
[1] = test system: ducksalad (Heteranthera limosa); test: Test C flooded paddy test plant response; conditions: Flood, 250 g ai/ha, scale of 0 to 100 where 0 is no effect and 100 is complete control, 13 to 15 days
Outline: (§1)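 Scored visually on a 0–100 scale (100 = complete control) against untreated plants 13 to 15 days after treatment in the greenhouse. Compounds went into paddy water of pots flooded to 3 cm, holding 2-leaf-stage plants.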

[2] = test system: barnyardgrass (Echinochloa crus-galli); test: Test C flooded paddy test plant response; conditions: Flood, 250 g ai/ha, scale of 0 to 100 where 0 is no effect and 100 is complete control, 13 to 15 days
Outline: as §1

[3] = test system: rice (Oryza sativa); test: Test C flooded paddy test plant response; conditions: Flood, 250 g ai/ha, scale of 0 to 100 where 0 is no effect and 100 is complete control, 13 to 15 days
Outline: as §1

[4] = test system: small-flower umbrella sedge (Cyperus difformis); test: Test C flooded paddy test plant response; conditions: Flood, 250 g ai/ha, scale of 0 to 100 where 0 is no effect and 100 is complete control, 13 to 15 days
Outline: as §1

[5] = test system: wheat (Triticum aestivum); test: Test B pre-/postemergence plant response
Outline: (§2)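 Greenhouse pots, loam/sand soil; compound formulated with surfactant in non-phytotoxic solvent. Preemergence soil spray and postemergence spray at 1–2 leaf stage run simultaneously. Visual injury, 0–100, about 10 days post-treatment.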

[6] = test system: giant foxtail (Setaria faberii); test: Test B pre-/postemergence plant response; conditions: for pest or weed control at 1000 g/ha: Setaria faberi, 240 h, read-out: Plant response rating, Foxtail, Giant
Outline: as §2

[7] = test system: ragweed (common ragweed, Ambrosia elatior); test: Test B pre-/postemergence plant response
Outline: as §2

[8] = test system: barnyardgrass (Echinochloa crus-galli); test: Test B pre-/postemergence plant response; conditions: for pest or weed control at 1000 g/ha: Echinochloa crus-galli, 240 h, read-out: Plant response rating, Barnyardgrass
Outline: as §2

[9] = test system: kochia (Kochia scoparia); test: Test B pre-/postemergence plant response
Outline: as §2

[10] = test system: corn (Zea mays); test: Test B pre-/postemergence plant response
Outline: as §2

[11] = test system: pigweed (Amaranthus retroflexus); test: Test B pre-/postemergence plant response; conditions: for pest or weed control at 1000 g/ha: Amaranthus retroflexus, 240 h, read-out: Plant response rating, Pigweed
Outline: as §2

[12] = test system: Italian ryegrass (Lolium multiflorum); test: Test B pre-/postemergence plant response
Outline: as §2

[13] = test system: chickweed (common chickweed, Stellaria media); test: Test D postemergence plant response
Outline: (§3)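 Postemergence spray on plants 2–18 cm tall (1- to 4-leaf stage), grown in pots of peat/vermiculite medium. Plants were kept in a greenhouse for 13–15 days, then visually rated against untreated controls on a 0 (no effect) to 100 (complete control) scale.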

[14] = test system: kochia (Kochia scoparia); test: Test D postemergence plant response
Outline: as §3

[15] = test system: wild oat (Avena fatua); test: Test D postemergence plant response
Outline: as §3

[16] = test system: galium (catchweed bedstraw, Galium aparine); test: Test B postemergence plant response
Outline: (§4)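 Injury was assessed visually about 10 days after treatment, scored from 0 (no effect) to 100 (complete control) by comparison with untreated controls. Test chemicals had been applied postemergence to potted plants at the one- to two-leaf stage, grown in loam soil and sand in a greenhouse.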

[17] = test system: blackgrass (Alopecurus myosuroides); test: Test B postemergence plant response
Outline: as §4

[18] = post-emergence, Postemergence, 1000 g ai/ha, 0 to 100 scale (0 no effect, 100 complete control)
[19] = pre-emergence, Preemergence, 1000 g ai/ha, 0 to 100 scale (0 no effect, 100 complete control)
[20] = Postemergence, 1000 g ai/ha, 0 to 100 scale (0 no effect, 100 complete control)
[21] = Preemergence, 1000 g ai/ha, 0 to 100 scale (0 no effect, 100 complete control)
[22] = 16 g ai/ha, scale 0 to 100 (0 no effect, 100 complete control)
[23] = 31 g ai/ha, scale 0 to 100 (0 no effect, 100 complete control)
[24] = 62 g ai/ha, scale 0 to 100, 0 no effect, 100 complete control
[25] = 125 g ai/ha, scale 0 to 100, 0 no effect, 100 complete control
[26] = 125 g ai/ha, postemergence, 0 to 100 scale, 0 no effect, 100 complete control
[27] = Postemergence, 500 g ai/ha, 0 to 100 scale (0 no effect, 100 complete control)
[28] = Preemergence, 125 g ai/ha, 0 to 100 scale where 0 is no effect and 100 is complete control
[29] = Preemergence, 500 g ai/ha, 0 to 100 scale where 0 is no effect and 100 is complete control

Fc1cccc(Oc2ncc(Cl)cn2)c1-c1cc(C(F)F)on1 [Compound 55, 5-chloro-2-[2-[5-(difluoromethyl)-3-isoxazolyl]-3-fluorophenoxy]pyrimidine]
pest or weed control at 250 g/ha ([1]; Heteranthera limosa, read-out: Ducksalad plant response rating): 100% | pest or weed control at 250 g/ha ([2]; Echinochloa crus-galli, read-out: Barnyardgrass plant response rating): 25% | plant injury at 250 g/ha ([3]; Oryza sativa, read-out: Rice plant response rating): 25% | pest or weed control at 250 g/ha ([4]; Cyperus difformis, read-out: Sedge, Umbrella plant response rating): 90% | plant injury at 1000 g/ha ([5]; Triticum aestivum, post-emergence, 240 h, Postemergence, 1000 g ai/ha, 0 to 100 scale (0 no effect, 100 complete control), read-out: Plant response rating, Wheat): 100% | pest or weed control at 1000 g/ha [6, 18]: 100% | pest or weed control at 1000 g/ha [6, 19]: 100% | Plant response rating, Ragweed [7, 20]: 100 | Plant response rating, Ragweed [7, 21]: 100 | pest or weed control at 1000 g/ha [8, 18]: 100% | pest or weed control at 1000 g/ha [8, 19]: 100% | Plant response rating, Kochia [9, 20]: 100 | Plant response rating, Kochia [9, 21]: 100 | Corn plant response rating (crop injury, 0 = no effect, 100 = complete kill) at 1000 g/ha ([10]; Zea mays, post-emergence, 240 h, Postemergence, 1000 g ai/ha, 0 to 100 scale (0 no effect, 100 complete control)): 100% | pest or weed control at 1000 g/ha [11, 18]: 100% | pest or weed control at 1000 g/ha [11, 19]: 100% | Plant response rating, Ryegrass, Italian [12, 20]: 100 | Plant response rating, Ryegrass, Italian [12, 21]: 100 | pest or weed control at 16 g/ha ([13]; Stellaria media, post-emergence, 16 g ai/ha, scale 0 to 100 (0 no effect, 100 complete control), read-out: Chickweed plant response rating): 70% | pest or weed control at 31 g/ha ([13]; Stellaria media, post-emergence, 31 g ai/ha, scale 0 to 100 (0 no effect, 100 complete control), read-out: Chickweed plant response rating): 75% | pest or weed control at 62 g/ha ([13]; Stellaria media, post-emergence, 62 g ai/ha, scale 0 to 100, 0 no effect, 100 complete control, read-out: Plant response rating, Chickweed): 98% | pest or weed control at 125 g/ha ([13]; Stellaria media, post-emergence, 125 g ai/ha, scale 0 to 100, 0 no effect, 100 complete control, read-out: Plant response rating, Chickweed): 100% | pest or weed control at 16 g/ha ([14]; Bassia scoparia, post-emergence, 16 g ai/ha, scale 0 to 100 (0 no effect, 100 complete control), read-out: Kochia plant response rating): 98% | pest or weed control at 31 g/ha ([14]; Bassia scoparia, post-emergence, 31 g ai/ha, scale 0 to 100 (0 no effect, 100 complete control), read-out: Kochia plant response rating): 100% | pest or weed control at 62 g/ha ([14]; Bassia scoparia, post-emergence, 62 g ai/ha, scale 0 to 100, 0 no effect, 100 complete control, read-out: Plant response rating, Kochia): 100% | pest or weed control at 125 g/ha ([14]; Bassia scoparia, post-emergence, 125 g ai/ha, scale 0 to 100, 0 no effect, 100 complete control, read-out: Plant response rating, Kochia): 100% | pest or weed control at 16 g/ha ([15]; Avena fatua, post-emergence, 16 g ai/ha, scale 0 to 100 (0 no effect, 100 complete control), read-out: Oat, Wild plant response rating): 5% | pest or weed control at 31 g/ha ([15]; Avena fatua, post-emergence, 31 g ai/ha, scale 0 to 100 (0 no effect, 100 complete control), read-out: Oat, Wild plant response rating): 15% | pest or weed control at 62 g/ha ([15]; Avena fatua, post-emergence, 62 g ai/ha, scale 0 to 100, 0 no effect, 100 complete control, read-out: Plant response rating, Oat, Wild): 40% | pest or weed control at 125 g/ha ([15]; Avena fatua, post-emergence, 125 g ai/ha, scale 0 to 100, 0 no effect, 100 complete control, read-out: Plant response rating, Oat, Wild): 40% | Plant response rating, Galium [16, 20]: 100 | Plant response rating, Blackgrass [17, 20]: 100

FCc1cc(-c2c(F)cccc2Oc2ncc(Cl)cn2)no1 [Compound 57]
Ducksalad plant response rating [1]: 90 | Barnyardgrass plant response rating [2]: 0 | Rice plant response rating [3]: 0 | Sedge, Umbrella plant response rating [4]: 75 | Plant response rating, Wheat [5, 20]: 90 | Plant response rating, Foxtail, Giant [6, 20]: 100 | Plant response rating, Foxtail, Giant [6, 21]: 100 | Plant response rating, Ragweed [7, 20]: 100 | Plant response rating, Ragweed [7, 21]: 90 | Plant response rating, Barnyardgrass [8, 20]: 100 | Plant response rating, Barnyardgrass [8, 21]: 100 | Plant response rating, Kochia [9, 20]: 90 | Plant response rating, Kochia [9, 21]: 100 | Plant response rating, Corn [10, 20]: 90 | Plant response rating, Pigweed [11, 20]: 100 | Plant response rating, Pigweed [11, 21]: 90 | Plant response rating, Ryegrass, Italian [12, 20]: 80 | Plant response rating, Ryegrass, Italian [12, 21]: 80 | Chickweed plant response rating [13, 22]: 30 | Chickweed plant response rating [13, 23]: 50 | Plant response rating, Chickweed [13, 24]: 55 | Plant response rating, Chickweed [13, 25]: 75 | Kochia plant response rating [14, 22]: 75 | Kochia plant response rating [14, 23]: 90 | Plant response rating, Kochia [14, 24]: 95 | Plant response rating, Kochia [14, 25]: 100 | Oat, Wild plant response rating [15, 22]: 0 | Oat, Wild plant response rating [15, 23]: 0 | Plant response rating, Oat, Wild [15, 24]: 5 | Plant response rating, Oat, Wild [15, 25]: 15 | Plant response rating, Galium [16, 20]: 90 | Plant response rating, Blackgrass [17, 20]: 90

Cc1cc(-c2ccccc2Oc2ncc(Cl)cn2)on1 [Compound 58]
Ducksalad plant response rating [1]: 80 | Barnyardgrass plant response rating [2]: 0 | Rice plant response rating [3]: 0 | Sedge, Umbrella plant response rating [4]: 40 | Plant response rating, Wheat [5, 26]: 0 | Plant response rating, Wheat [5, 27]: 50 | Plant response rating, Foxtail, Giant [6, 26]: 70 | Plant response rating, Foxtail, Giant [6, 27]: 90 | Plant response rating, Foxtail, Giant [6, 28]: 90 | Plant response rating, Foxtail, Giant [6, 29]: 100 | Plant response rating, Ragweed [7, 26]: 100 | Plant response rating, Ragweed [7, 27]: 100 | Plant response rating, Ragweed [7, 28]: 70 | Plant response rating, Ragweed [7, 29]: 80 | Plant response rating, Barnyardgrass [8, 26]: 70 | Plant response rating, Barnyardgrass [8, 27]: 90 | Plant response rating, Barnyardgrass [8, 28]: 60 | Plant response rating, Barnyardgrass [8, 29]: 100 | Plant response rating, Kochia [9, 26]: 100 | Plant response rating, Kochia [9, 27]: 100 | Plant response rating, Kochia [9, 28]: 80 | Plant response rating, Kochia [9, 29]: 100 | Plant response rating, Corn [10, 26]: 0 | Plant response rating, Corn [10, 27]: 50 | Plant response rating, Pigweed [11, 26]: 100 | Plant response rating, Pigweed [11, 27]: 100 | Plant response rating, Pigweed [11, 28]: 100 | Plant response rating, Pigweed [11, 29]: 100 | Plant response rating, Ryegrass, Italian [12, 26]: 20 | Plant response rating, Ryegrass, Italian [12, 27]: 80 | Plant response rating, Ryegrass, Italian [12, 28]: 0 | Plant response rating, Ryegrass, Italian [12, 29]: 20 | Chickweed plant response rating [13, 22]: 5 | Chickweed plant response rating [13, 23]: 10 | Plant response rating, Chickweed [13, 24]: 15 | Plant response rating, Chickweed [13, 25]: 30 | Kochia plant response rating [14, 22]: 35 | Kochia plant response rating [14, 23]: 50 | Plant response rating, Kochia [14, 24]: 60 | Plant response rating, Kochia [14, 25]: 80 | Oat, Wild plant response rating [15, 22]: 0 | Oat, Wild plant response rating [15, 23]: 0 | Plant response rating, Oat, Wild [15, 24]: 0 | Plant response rating, Oat, Wild [15, 25]: 0 | Plant response rating, Galium [16, 26]: 100 | Plant response rating, Galium [16, 27]: 100 | Plant response rating, Blackgrass [17, 26]: 70 | Plant response rating, Blackgrass [17, 27]: 90
